# Measured values: the NIST ThermoML archive (doi:10.1016/j.jct.2007.06.020)
# ± gives the expanded uncertainty stated by the source.
# Test: molar enthalpy of vaporization or sublimation
# Details: 298.15 K; Liquid; Calvet microcalorimetry
row,Structure (SMILES),molar enthalpy [kcal/mol]
1,N#Cc1cccs1 [2-cyanothiophene],11.8 ± 0.526
2,N#CCc1cccs1 [2-thiopheneacetonitrile],14.5 ± 0.621
3,Cc1ccsc1C#N [3-methylthiophene-2-carbonitrile],13 ± 0.574
4,N#CCc1ccsc1 [3-thiopheneacetonitrile],14.6 ± 0.621
5,N#Cc1ccsc1 [3-thiophenecarbonitrile],12.3 ± 0.908
